In brackets after ≈: the same amount, converted by molar mass.
Tests used:
Format in all cases: functional
[1] = test system: Mycobacterium tuberculosis; assay: Antimycobacterial activity against rifampicin-resistant Mycobacterium tuberculosis H37Rv ATCC 35828
[2] = test system: Mycobacterium tuberculosis; assay: Antimycobacterial activity against isoniazid-resistant Mycobacterium tuberculosis H37Rv INH-R1 harboring katG Y155 truncated mutant
[3] = test system: Mycobacterium tuberculosis; assay: Antimycobacterial activity against rifampicin-resistant Mycobacterium tuberculosis H37Rv RIF-R1 harboring rpoB S522L mutant
[4] = test system: Mycobacterium tuberculosis; assay: Antimycobacterial activity against isoniazid-resistant Mycobacterium tuberculosis H37Rv ATCC 35822 INH-R2
[5] = test system: Mycobacterium tuberculosis; assay: Antimycobacterial activity against rifampicin-resistant Mycobacterium tuberculosis H37Rv ATCC 35828 RIF-R2
[6] = test system: Mycobacterium tuberculosis; assay: Antimycobacterial activity against fluoroquinolone-resistant Mycobacterium tuberculosis H37Rv FQ-R1 harboring unidentified mutation
[7] = test system: Mycobacterium tuberculosis; assay: Antimycobacterial activity against isoniazid-resistant Mycobacterium tuberculosis H37Rv ATCC 35822
[8] = test system: Mycobacterium tuberculosis; assay: Antimycobacterial activity against ofloxacin-resistant Mycobacterium tuberculosis H37Rv ATCC 35828
[9] = test system: Mycobacterium tuberculosis; assay: Antimycobacterial activity against ethambutol-resistant Mycobacterium tuberculosis H37Rv ATCC 35837
[10] = test system: Mycobacterium tuberculosis; assay: Antimycobacterial activity against ethionamide-resistant Mycobacterium tuberculosis H37Rv ATCC 35830
[11] = test system: Mycobacterium tuberculosis; assay: Antimycobacterial activity against kanamycin-resistant Mycobacterium tuberculosis H37Rv ATCC 3582
[12] = test system: Mycobacterium tuberculosis; assay: Antimycobacterial activity against streptomycin-resistant Mycobacterium tuberculosis H37Rv ATCC 35820
[13] = test system: Mycobacterium tuberculosis; assay: Antimycobacterial activity against streptomycin-resistant Mycobacterium tuberculosis H37Rv ATCC 35820 by microplate alamar blue assay

Structure (SMILES)	MIC [2] [µg/mL]	MIC [3] [µg/mL]	MIC [4] [µg/mL]	MIC [5] [µg/mL]	MIC [6] [µg/mL]	MIC [7] [µg/mL]	further results
NNC(=O)c1ccncc1 [ISONIAZID]	>200	1.2 (≈ 8.75 µM)	1.4 (≈ 10.2 µM)	1.3 (≈ 9.48 µM)	29 (≈ 211 µM)		MIC [1]: 0.02 µg/mL (≈ 0.146 µM)
C=C(C)[C@@H]1CC[C@]2(COC(=O)CCC(=O)O)CC[C@]3(C)[C@H](CC[C@@H]4[C@@]5(C)CCCNC(C)(C)[C@@H]5CC[C@]43C)[C@@H]12						12 (≈ 22.1 µM)	MIC [1]: 6 µg/mL (≈ 11.1 µM); MIC [8]: 6 µg/mL (≈ 11.1 µM)
COc1ccc(/C=C/C(=O)OC[C@]23CC[C@@H](C)[C@H](C)[C@@H]2C2=CC[C@@H]4[C@@]5(C)CCCNC(C)(C)[C@@H]5CC[C@@]4(C)[C@]2(C)CC3)cc1	20 (≈ 33.2 µM)	24 (≈ 39.9 µM)	17 (≈ 28.2 µM)	21 (≈ 34.9 µM)	20 (≈ 33.2 µM)		
C[C@H]1[C@H](C)CC[C@]2(COC(=O)/C=C/c3ccccc3)CC[C@]3(C)C(=CC[C@@H]4[C@@]5(C)CCCNC(C)(C)[C@@H]5CC[C@]43C)[C@@H]12	28 (≈ 49 µM)	19 (≈ 33.2 µM)	15 (≈ 26.2 µM)	24 (≈ 42 µM)	27 (≈ 47.2 µM)		
C[C@H]1[C@H](C)CC[C@]2(CO)CC[C@]3(C)C(=CC[C@@H]4[C@@]5(C)CCCNC(C)(C)[C@@H]5CC[C@]43C)[C@@H]12	37 (≈ 83.8 µM)	29 (≈ 65.6 µM)	39 (≈ 88.3 µM)	51 (≈ 115 µM)	34 (≈ 77 µM)		
CC1(C)CC[C@]2(CO)CC[C@]3(C)C(=CC[C@@H]4[C@@]5(C)CCCNC(C)(C)[C@@H]5CC[C@]43C)[C@H]2C1	34 (≈ 77 µM)	39 (≈ 88.3 µM)	15 (≈ 34 µM)	69 (≈ 156 µM)	44 (≈ 99.6 µM)		
C=C(C)[C@@H]1CC[C@]2(COC(=O)/C=C/c3ccccc3)CC[C@]3(C)[C@H](CC[C@@H]4[C@@]5(C)CCCNC(C)(C)[C@@H]5CC[C@]43C)[C@@H]12						4 (≈ 6.99 µM)	MIC [1]: 1 µg/mL (≈ 1.75 µM); MIC [8]: 1 µg/mL (≈ 1.75 µM)
C=C(C)[C@@H]1CC[C@]2(CO)CC[C@]3(C)[C@H](CC[C@@H]4[C@@]5(C)CCCNC(C)(C)[C@@H]5CC[C@]43C)[C@@H]12						5 (≈ 11.3 µM)	MIC [9]: 5 µg/mL (≈ 11.3 µM); MIC [10]: 10 µg/mL (≈ 22.6 µM); MIC [11]: 10 µg/mL (≈ 22.6 µM); MIC [12]: 5 µg/mL (≈ 11.3 µM)
CO[C@H]1/C=C/O[C@@]2(C)Oc3c(C)c(O)c4c(O)c(c(/C=N/N5CCN(C)CC5)c(O)c4c3C2=O)NC(=O)/C(C)=C\C=C\[C@H](C)[C@H](O)[C@@H](C)[C@@H](O)[C@@H](C)[C@H](OC(C)=O)[C@@H]1C [RIFAMPIN]	0.015 (≈ 0.0182 µM)	0.29 (≈ 0.352 µM)	100 (≈ 122 µM)	0.62 (≈ 0.753 µM)	0.37 (≈ 0.45 µM)	0.05 (≈ 0.0608 µM)	MIC [8]: 0.195 µg/mL (≈ 0.237 µM)
C[C@H]1[C@H](C)CC[C@]2(C(=O)O)CC[C@]3(C)C(=CC[C@@H]4[C@@]5(C)CC[C@H](O)C(C)(C)[C@@H]5CC[C@]43C)[C@H]12 [URSOLIC ACID]							MIC [13]: 12.5 µg/mL (≈ 27.4 µM)
CC1(C)CC[C@]2(COC(=O)/C=C/c3ccccc3)CC[C@]3(C)C(=CC[C@@H]4[C@@]5(C)CCCNC(C)(C)[C@@H]5CC[C@]43C)[C@H]2C1	13 (≈ 22.7 µM)	7.4 (≈ 12.9 µM)	12 (≈ 21 µM)	14 (≈ 24.5 µM)	13 (≈ 22.7 µM)		

Source: ChEMBL document CHEMBL4251581, “Synthesis and antimycobacterial activity of triterpeni≿ A-ring azepanes” (Eur J Med Chem, 2018)
